What was measured:
Assay type in all cases: cell-based
MCF7 = assay: MTT antiproliferative assay, MCF7; conditions: Homo sapiens, MCF7, 72 h, read-out: IC50 values MCF7
HepG2 = assay: MTT antiproliferative assay, HepG2; conditions: Homo sapiens, HepG2, 72 h, read-out: IC50 values HepG2
A549 = assay: MTT antiproliferative assay, A549; conditions: Homo sapiens, A549, 72 h, read-out: IC50 values A549
MCF-10A = assay: MTT cytotoxicity assay, noncancerous MCF-10A; conditions: Homo sapiens, 72 h, read-out: IC50 values MCF-10A

IC50 (MCF7) [µM]	IC50 (HepG2) [µM]	IC50 (A549) [µM]	Compound	IC50 (MCF-10A) [µM]
39.8 ± 3.35	33.9 ± 3.34	36.3 ± 3.37	N#CC1=C(N)OC2=C(C(=O)CCC2)C1c1cccs1 (centres unmarked) [Compound 1, 2-Amino-5-oxo-4-(thiophen-2-yl)-5,6,7,8-tetrahydro-4H-chromene-3-carbonitrile]	
29.4 ± 2.35	27.3 ± 3.87	29.9 ± 3.05	CCO/C=N/C1=C(C#N)C(c2cccs2)C2=C(CCCC2=O)O1 (centres unmarked) [Compound 2, Ethyl (E)-N-(3-Cyano-5-oxo-4-(thiophen-2-yl)-5,6,7,8-tetrahydro-4H-chromen-2-yl)formimidate]	
1.61 ± 0.12	2.02 ± 0.15	1.87 ± 0.32	N=c1c2c(ncn1N)OC1=C(C(=O)CCC1)C2c1cccs1 (centres unmarked) [Compound 3, 3-Amino-4-imino-5-(thiophen-2-yl)-3,4,5,7,8,9-hexahydro-6H-chromeno[2,3-d]pyrimidin-6-one]	77.3 ± 3.22
14.3 ± 2.05	13.7 ± 3.81	14.9 ± 3.12	Nc1nc(=O)[nH]c2c1C(c1cccs1)C1=C(CCCC1=O)O2 (centres unmarked) [Compound 4a, 4-Amino-5-(thiophen-2-yl)-5,7,8,9-tetrahydro-2H-chromeno[2,3-d]pyrimidine-2,6(1H)-dione]	60.1 ± 2.31
18.8 ± 3.19	17.8 ± 2.04	17.1 ± 3.17	Nc1nc(=S)[nH]c2c1C(c1cccs1)C1=C(CCCC1=O)O2 (centres unmarked) [Compound 4b, 4-Amino-5-(thiophen-2-yl)-2-thioxo-1,2,5,7,8,9-hexahydro-6H-chromeno[2,3-d]pyrimidin-6-one]	58.1 ± 2.34
5.6 ± 1.12	6.26 ± 0.32	7.28 ± 1.34	Nc1c2c(nc(=S)n1-c1ccccc1)OC1=C(C(=O)CCC1)C2c1cccs1 (centres unmarked) [Compound 7, 4-Amino-3-phenyl-5-(thiophen-2-yl)-2-thioxo-2,3,5,7,8,9-hexahydro-6H-chromeno[2,3-d]pyrimidin-6-one]	78.5 ± 2.05
60.1 ± 3.45	50.5 ± 3.16	50.7 ± 3.23	N#CCc1nc(N)c2c(n1)OC1=C(C(=O)CCC1)C2c1cccs1 (centres unmarked) [Compound 11, 2-(4-Amino-6-oxo-5-(thiophen-2-yl)-6,7,8,9-tetrahydro-5H-chromeno[2,3-d]pyrimidin-2-yl)acetonitrile]	
18.1 ± 2.05	19.3 ± 2.07	19.2 ± 3.88	NC(=S)Cc1nc(N)c2c(n1)OC1=C(C(=O)CCC1)C2c1cccs1 (centres unmarked) [Compound 13, 2-(4-Amino-6-oxo-5-(thiophen-2-yl)-6,7,8,9-tetrahydro-5H-chromeno[2,3-d]pyrimidin-2-yl)ethanethioamide]	51.6 ± 1.98
39.3 ± 3.12	37.2 ± 1.45	40.4 ± 3.15	CCOC(=O)NC1=C(C#N)C(c2cccs2)C2=C(CCCC2=O)O1 (centres unmarked) [Compound 14, Ethyl (3-Cyano-5-oxo-4-(thiophen-2-yl)-5,6,7,8-tetrahydro-4H-chromen-2-yl)carbamate]	
19.3 ± 3.37	19.3 ± 2.06	19 ± 3.45	O=C1CCCC2=C1C(c1cccs1)C1=C(NC(=O)N3CCN=C13)O2 (centres unmarked) [Compound 15, 12-(Thiophen-2-yl)-2,6,8,9,10,12-hexahydro-5H-chromeno[3,2-e]imidazo[1,2-c]pyrimidine-5,11(3H)-dione]	52.3 ± 2.18
29 ± 2.38	25.3 ± 1.34	24.3 ± 3.88	CC(=O)N(C(C)=O)C1=C(C#N)C(c2cccs2)C2=C(CCCC2=O)O1 (centres unmarked) [Compound 17, N-Acetyl-N-(3-cyano-5-oxo-4-(thiophen-2-yl)-5,6,7,8-tetrahydro-4H-chromen-2-yl)acetamide]	
15.2 ± 1.65	13.3 ± 1.96	14.3 ± 1.96	N=c1c2c(nc(-c3ccccc3)n1N)OC1=C(C(=O)CCC1)C2c1cccs1 (centres unmarked) [Compound 19, 3-Amino-4-imino-2-phenyl-5-(thiophen-2-yl)-3,4,5,7,8,9-hexahydro-6H-chromeno[2,3-d]pyrimidin-6-one]	60.5 ± 1.94
1.68 ± 0.11	2.71 ± 0.12	2.22 ± 0.22	COc1cccc2c1C(=O)c1c(O)c3c(c(O)c1C2=O)C[C@@](O)(C(=O)CO)C[C@@H]3O[C@H]1C[C@H](N)[C@H](O)[C@H](C)O1 [doxorubicin, reference compound]	87.3 ± 1.47

Reference: PMC10720285 (ACS Omega, 2023)
